Experimental data: patent publication US20170197935A1, “INHIBITORS OF DNA GYRASE FOR THE TREATMENT OF BACTERIAL INFECTIONS” (Vitas Pharma Research Private Limited, priority 2012, published 2017)
In brackets after ≈: the same amount, converted by molar mass.

Key:
E. coli (ATCC 25922) = assay: MIC by microbroth dilution, E. coli ATCC 25922; type: cell-based; settings: Escherichia coli, ATCC25922, Formula I compounds, read-out: MIC E. coli (ATCC 25922)
Experimental: (§1) Shown below are the microbiological activities of representative compounds of Formula I of the invention. The compounds were tested by the microbroth dilution method (National committee for Clinical Laboratory Standards, 2011, M07-08) and the Minimum Inhibitory Concentration (MIC) was determined.
(§2) Analysis of microbiological activity of compounds shown below are the microbiological activities of representative compounds of Formula II of the invention. The compounds were tested by the microbroth dilution method as per the reference in Example 1.

[1] = test system: Methicillin resistant Staphylococcus aureus (ATCC 33591); assay: MIC by microbroth dilution, MRSA ATCC 33591; type: cell-based; settings: ATCC33591, Formula I compounds, read-out: MIC Methicillin resistant Staphylococcus aureus (ATCC 33591)
Experimental: as §1, §2

[2] = test system: K. pneumoniae (ATCC 700603); assay: MIC by microbroth dilution, K. pneumoniae ATCC 700603; type: cell-based; settings: Klebsiella pneumoniae, ATCC700603, Formula I compounds
Experimental: as §1, §2

[3] = test system: Staphylococcus aureus (ATCC 29213); assay: MIC by microbroth dilution, Staphylococcus aureus ATCC 29213; type: cell-based; settings: ATCC29213
Experimental: (§3) Shown below are the microbiological activities of representative compounds of Formula I of the invention. The compounds were tested by the microbroth dilution method (National committee for Clinical Laboratory Standards, 2011, […]-08) and the Minimum Inhibitory Concentration (MIC) was determined.

[4] = test system: Moraxella catarrhalis (ATCC 8176); assay: MIC by microbroth dilution, Moraxella catarrhalis ATCC 8176; type: cell-based; settings: ATCC8176
Experimental: as §3

[5] = test system: Streptococcus pneumoniae (ATCC 6301); assay: MIC by microbroth dilution, Streptococcus pneumoniae ATCC 6301; type: cell-based; settings: ATCC6301
Experimental: as §3

[6] = test system: Enterococcus faecalis (ATCC 29212); assay: MIC by microbroth dilution, Enterococcus faecalis ATCC 29212; type: cell-based; settings: ATCC29212
Experimental: as §3

E. coli Gyrase = target: T1, E. coli Gyrase (Escherichia coli, UniProt P0AES4+P0AES6); assay: in vitro Gyrase supercoiling assay (Inspiralis kit); type: biochemical; settings: 1 hour at 37° C., read-out: % inhibition of DNA supercoiling activity
T1 construct: purchased Inspiralis
Experimental: To test for target specificity, the activity of compounds was evaluated in an in vitro Gyrase assay using recombinant Gyrase protein as per the instructions of the assay kit (Inspiralis). The assay measures the ability of E. coli Gyrase to convert relaxed plasmid DNA into the supercoiled form. The enzyme is incubated with the substrate (relaxed DNA) in the presence and absence of compounds for 1 hour at 37° C. and the DNA is run on a gel at low voltage for several hours. The gel is then stained with Ethidium bromide and DNA in the different forms is quantified using DNA imaging and quantification software (Image Lab). The activity of the enzyme is proportional to the amount of supercoiled form detected.

T1 sequence (P0AES4 whole entry, one chain of several): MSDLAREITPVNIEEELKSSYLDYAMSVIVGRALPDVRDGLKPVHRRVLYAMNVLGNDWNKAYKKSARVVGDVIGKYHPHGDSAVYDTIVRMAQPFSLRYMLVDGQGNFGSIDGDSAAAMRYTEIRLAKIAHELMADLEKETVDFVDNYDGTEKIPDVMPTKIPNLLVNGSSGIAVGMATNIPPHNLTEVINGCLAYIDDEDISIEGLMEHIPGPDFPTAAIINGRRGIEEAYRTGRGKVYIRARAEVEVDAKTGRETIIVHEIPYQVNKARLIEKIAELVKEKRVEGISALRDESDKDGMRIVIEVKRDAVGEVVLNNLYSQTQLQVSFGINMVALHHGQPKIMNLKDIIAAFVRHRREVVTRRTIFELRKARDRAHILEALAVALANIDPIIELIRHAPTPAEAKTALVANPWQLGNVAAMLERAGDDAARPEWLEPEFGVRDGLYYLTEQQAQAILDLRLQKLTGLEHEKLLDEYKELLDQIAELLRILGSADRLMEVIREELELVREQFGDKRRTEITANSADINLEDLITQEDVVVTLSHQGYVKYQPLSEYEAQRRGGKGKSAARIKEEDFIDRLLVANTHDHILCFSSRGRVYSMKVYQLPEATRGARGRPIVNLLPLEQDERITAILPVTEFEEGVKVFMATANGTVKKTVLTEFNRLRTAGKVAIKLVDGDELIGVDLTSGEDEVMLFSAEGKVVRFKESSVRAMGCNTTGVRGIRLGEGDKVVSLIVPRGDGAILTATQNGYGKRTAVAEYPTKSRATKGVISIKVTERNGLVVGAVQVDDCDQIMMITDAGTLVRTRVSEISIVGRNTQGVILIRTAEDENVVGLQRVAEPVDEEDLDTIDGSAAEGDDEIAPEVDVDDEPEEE

SMILES: COc1ccc2ncc(C#N)c(CCN3CCC(NCc4cc([N+](=O)[O-])ccc4O)CC3)c2c1 [VT-03-00059]
- MIC (E. coli (ATCC 25922)): > 32 µg/mL
- MIC [1]: 1 µg/mL (≈ 2.17 µM)
- MIC [2]: > 32 µg/mL
- MIC [3]: 0.25 µg/mL (≈ 0.542 µM)
- MIC [4]: 8 µg/mL (≈ 17.3 µM)
- MIC [5]: 2 µg/mL (≈ 4.33 µM)
- MIC [6]: 8 µg/mL (≈ 17.3 µM)

SMILES: COc1ccc2ncc(C#N)c(CCN3C[C@@H]4C[C@H]3CN4CNc3ccc4c(c3)OCCO4)c2c1 [VT-03-00028]
- MIC (E. coli (ATCC 25922)): > 32 µg/mL
- MIC [1]: 0.5 µg/mL (≈ 1.06 µM)
- MIC [2]: > 32 µg/mL
- MIC [3]: 0.25 µg/mL (≈ 0.53 µM)
- MIC [4]: 4 µg/mL (≈ 8.48 µM)
- MIC [5]: 0.25 µg/mL (≈ 0.53 µM)
- MIC [6]: 1 µg/mL (≈ 2.12 µM)

SMILES: COc1ccc2ncc(C#N)c(CCN3CCC(NCc4cc([N+](=O)[O-])ccn4)CC3)c2c1 [VT-03-00079]
- MIC (E. coli (ATCC 25922)): 32 µg/mL (≈ 71.7 µM)
- MIC [1]: 2 µg/mL (≈ 4.48 µM)
- MIC [3]: 2 µg/mL (≈ 4.48 µM)
- MIC [4]: 4 µg/mL (≈ 8.96 µM)
- inhibition at 0.1 µM (E. coli Gyrase; 0.1 μM compound): 16.7%
- inhibition at 1 µM (E. coli Gyrase; 1 μM compound): 87.6%
- MIC [5]: 2 µg/mL (≈ 4.48 µM)
- MIC [6]: 32 µg/mL (≈ 71.7 µM)

SMILES: COc1ccc2ncc(C#N)c(CCN3CCC(NCc4cccc([N+](=O)[O-])c4)CC3)c2c1 [VT-03-00049]
- MIC (E. coli (ATCC 25922)): 32 µg/mL (≈ 71.8 µM)
- MIC [1]: 0.5 µg/mL (≈ 1.12 µM)
- MIC [2]: > 32 µg/mL
- MIC [3]: 0.12 µg/mL (≈ 0.269 µM)
- MIC [4]: 8 µg/mL (≈ 18 µM)
- MIC [5]: 0.5 µg/mL (≈ 1.12 µM)
- MIC [6]: 2 µg/mL (≈ 4.49 µM)

SMILES: COc1ccc2ncc(C#N)c(CCN3C4CCC3CC(NC(=O)c3ccc5c(c3)OCCO5)C4)c2c1 (stereo not drawn) [VT-03-00024]
- MIC (E. coli (ATCC 25922)): > 32 µg/mL
- MIC [1]: 2 µg/mL (≈ 4.01 µM)
- MIC [3]: 1 µg/mL (≈ 2.01 µM)
- MIC [4]: 8 µg/mL (≈ 16 µM)
- MIC [5]: 2 µg/mL (≈ 4.01 µM)
- MIC [6]: 8 µg/mL (≈ 16 µM)

SMILES: COc1ccc2ncc(C#N)c(CCN3CCC(NCc4cc([N+](=O)[O-])ccc4F)CC3)c2c1 [VT-03-00050]
- MIC (E. coli (ATCC 25922)): 16 µg/mL (≈ 34.5 µM)
- MIC [1]: 0.5 µg/mL (≈ 1.08 µM)
- MIC [2]: > 16 µg/mL
- MIC [3]: 0.25 µg/mL (≈ 0.539 µM)
- MIC [4]: 4 µg/mL (≈ 8.63 µM)
- MIC [5]: 4 µg/mL (≈ 8.63 µM)
- MIC [6]: 4 µg/mL (≈ 8.63 µM)

SMILES: COc1ccc2ncc(C#N)c(CCN3CCC(NCc4ccc([N+](=O)[O-])c(F)c4)CC3)c2c1 [VT-03-00054]
- MIC (E. coli (ATCC 25922)): 8 µg/mL (≈ 17.3 µM)
- MIC [1]: 0.12 µg/mL (≈ 0.259 µM)
- MIC [2]: 32 µg/mL (≈ 69 µM)
- MIC [3]: 0.03 µg/mL (≈ 0.0647 µM)
- MIC [4]: 1 µg/mL (≈ 2.16 µM)
- MIC [5]: 0.5 µg/mL (≈ 1.08 µM)
- MIC [6]: 2 µg/mL (≈ 4.31 µM)

SMILES: COc1ccc2ncc(=O)n(CCN3CCC(NCc4ccc(F)c([N+](=O)[O-])c4)CC3)c2c1 [VT-03-00056]
- MIC (E. coli (ATCC 25922)): 4 µg/mL (≈ 8.78 µM)
- MIC [1]: 0.5 µg/mL (≈ 1.1 µM)
- MIC [2]: > 32 µg/mL
- MIC [3]: 0.25 µg/mL (≈ 0.549 µM)
- MIC [4]: 1 µg/mL (≈ 2.2 µM)
- MIC [5]: 0.25 µg/mL (≈ 0.549 µM)
- MIC [6]: 8 µg/mL (≈ 17.6 µM)

SMILES: COc1ccc2ncc(C#N)c(CCN3C4CCC3CC(NCc3cc5c(cn3)OCCO5)C4)c2c1 (stereo not drawn) [VT-03-00027]
- MIC (E. coli (ATCC 25922)): > 32 µg/mL
- MIC [1]: 4 µg/mL (≈ 8.24 µM)
- MIC [3]: 2 µg/mL (≈ 4.12 µM)
- MIC [4]: 8 µg/mL (≈ 16.5 µM)
- MIC [5]: 2 µg/mL (≈ 4.12 µM)
- MIC [6]: 4 µg/mL (≈ 8.24 µM)

SMILES: COc1ccc2ncc(C#N)c(CCN3CCC(NCc4cc(C)cc([N+](=O)[O-])c4C)CC3)c2c1 [VT-03-00075]
- MIC (E. coli (ATCC 25922)): 4 µg/mL (≈ 8.45 µM)
- MIC [1]: 0.12 µg/mL (≈ 0.253 µM)
- MIC [2]: > 16 µg/mL
- MIC [3]: 0.12 µg/mL (≈ 0.253 µM)
- MIC [4]: 0.5 µg/mL (≈ 1.06 µM)
- MIC [5]: 0.06 µg/mL (≈ 0.127 µM)
- MIC [6]: 0.5 µg/mL (≈ 1.06 µM)

SMILES: COc1ccc2ncc(C#N)c(CCN3CCC(NCc4csc([N+](=O)[O-])n4)CC3)c2c1 [VT-03-00080]
- MIC (E. coli (ATCC 25922)): 32 µg/mL (≈ 70.7 µM)
- MIC [1]: 1 µg/mL (≈ 2.21 µM)
- MIC [3]: 0.25 µg/mL (≈ 0.552 µM)
- MIC [4]: > 4 µg/mL
- MIC [5]: 2 µg/mL (≈ 4.42 µM)
- MIC [6]: 4 µg/mL (≈ 8.84 µM)

SMILES: COc1ccc2ncc(C#N)c(N3CC(N4CCC(NCc5ccc6c(c5)OCCO6)CC4)C3)c2c1 [VT-03-00032]
- MIC (E. coli (ATCC 25922)): > 32 µg/mL
- MIC [1]: 4 µg/mL (≈ 8.24 µM)
- MIC [2]: > 32 µg/mL
- MIC [3]: 2 µg/mL (≈ 4.12 µM)
- MIC [4]: 8 µg/mL (≈ 16.5 µM)
- MIC [5]: 4 µg/mL (≈ 8.24 µM)
- MIC [6]: 8 µg/mL (≈ 16.5 µM)

SMILES: CCc1ccc(CNC2CCN(CCc3c(C#N)cnc4ccc(OC)cc34)CC2)cc1[N+](=O)[O-] [VT-03-00076]
- MIC (E. coli (ATCC 25922)): 2 µg/mL (≈ 4.22 µM)
- MIC [1]: 0.03 µg/mL (≈ 0.0633 µM)
- MIC [2]: > 16 µg/mL
- MIC [3]: 0.015 µg/mL (≈ 0.0317 µM)
- MIC [4]: 0.25 µg/mL (≈ 0.528 µM)
- MIC [5]: 0.03 µg/mL (≈ 0.0633 µM)
- MIC [6]: 0.25 µg/mL (≈ 0.528 µM)

SMILES: COc1ccc2ncc(OCCN3CCC(NCc4ccc(C)c([N+](=O)[O-])c4)CC3)nc2c1 [VT-03-00062a]
- MIC (E. coli (ATCC 25922)): 4 µg/mL (≈ 8.86 µM)
- MIC [1]: 1 µg/mL (≈ 2.21 µM)
- MIC [2]: > 32 µg/mL
- MIC [3]: 0.5 µg/mL (≈ 1.11 µM)
- MIC [4]: 2 µg/mL (≈ 4.43 µM)
- MIC [5]: 0.5 µg/mL (≈ 1.11 µM)
- MIC [6]: 4 µg/mL (≈ 8.86 µM)
